Measured values taken from patent US6500819B2, “Bicyclolactam compounds, use thereof and intermediates for preparing thereof” (Taiho Pharmaceutical Company Limited, priority 1994, dated 2002).

Columns and labels:
Wistar rats = assay: Anticonflict test (first part, Test Example 1); type: in vivo; settings: for Frequency of water drinking behavior: 1 h before test, value relative to control = 100
Procedure: Wistar rats (males weighing 140 to 160 g) were used for experiment in groups of 11 to 14.
The test compound, diazepam or buspirone was suspended in a 0.5 % sodiumn carboxymethyl cellulose solution, and the suspension was orally given to the animal in a volume of 5 mnl/kg one hour before the start of experiment.
With reference to a method described in “Process in Anxiolytics and Antidepresants,” ediled by Showa Ueki and Tatsuo Furukawa, Ishiyaku Shuppansha, 56-59 (1981) , the agents were tested using experimental boxes having a grid floor and a metal drinking tube in the floor. No water was supplied to the rats for 48 hours before the experiment. Upon lapse of first 24 hours, each group of rats were placed into the experimental box, permitted access to water for 30 seconds and caused to recognize the metal drinking tube. Upon lapse of further 24 hours with access to water prevented, the rats were placed into the box again and permitted access to water on condition that an electric current was passed between the metal drinking tube and the grid to give an electroshock for every 20 times of water drinking behavior to measure the frequency of water drinking behavior for 3 minutes.
The frequency is expessed by a value relative to the frequency of the control which is taken as 100.

ddY mice [1] = assay: Muscle relaxant effect (traction method), first part; settings: mouse, in vivo, po, 300 mg/kg
Procedure: Muscle Relaxant Effect (Traction Method)
(§1) Compound 3, Compound 13, diazepam or buspirone was suspended in a 0.5 % sodium carboxymethyl cellulose solution, and the suspension was orally administered to 3- to 4-week-old male ddY mice (in groups of 5) in a volume of 10 ml/kg one hour before the start of experiment.
With reference to a method described in Japan. J. Pharmacol., 49. 337˜349(1989), the foreleg of the mouse was hung on a horizontal wire, having a diameter of 1.2 mm and fixed at a level of 30 cm, three times consecutively. […] Thus, ED5 0 was determined for evaluation. […] Diazepam and buspirone were 2.2 mg/kg and 427.8 mg/kg, respectively, in ED5 0.

ddY mice [2] = assay: Sedative effect (spontaneous locomotor activity), first part; settings: mouse, in vivo, po, 300 mg/kg
Procedure: Sedative Effect (Spontaneous Locomotor Activity)
as §1
The test was conducted with reference to a method described in “Evaluation of Medicinal Efficacies (1), Pharmacological Test Method (1), Basic Lectures on Development of Pharmaceuticals,” 50˜54(1971). More specifically, the group of mice were given the test drug and thereafter measured the amount of spontaneous locomotor activity for 10 minutes per mouse rising Animex MK-110 (product of Muromachi Kikai Co., Ltd.).

ddY mice [3] = assay: Effect on central nervous system depressant: pentobarbital anesthetic method; settings: oral, mice; pentobarbital 40 mg/kg i.p.
Procedure: (§2) Effect On Central Nervous System Depressant
a. Pentobarbital Anesthetic Method
Compound 3, Compound 13, diazepam or buspirone was suspended in a 0.5 % sodium carboxymethyl cellulose solution, and the suspension was orally administered to 3- to 4-week-old male ddY mice (in groups of 5 to 10) in a volume of 10 ml/kg one hour before the start of experiment.
The test was conducted with reference to a method described in “Evaluation of Medicinal Efficacies (1), Pharmacological Test Method (1), Basic lectures on Development of Pharmaceuticals,” 144˜145(1971). More specifically, the group of mice were intraperitoneally given pentobarbital at a dose of 40 mg/kg and checked for sleeping time.

ddY mice [4] = assay: Effect on central nervous system depressant: ethanol enhancing method, first part; settings: mouse, in vivo, po, 300 mg/kg
Procedure: as §2
b. Ethanol Enhancing Method
(§3) Compound 3, Compound 13, diazepam or buspirone was suspended in a 0.5 % sodium carboxymethyl cellulose solution, and the suspension was orally administered to 3- to 4-week-old male ddY mice (in groups of 6) in a volume of 10 ml/kg one hour before the start of experiment.
The test was conducted with reference to a method described in Japan. J. Pharmacol., 49, 337˜349(1989). More specifically, the group of mice were intraperitoneally given 25 % ethanol at a dose of 20 ml/kg and checked for the time interval between loss and recovery of the righting reflex.

ddY mice [5] = assay: Anticonvulsant effect (pentylenetetrazol-induced convulsion method), first part; type: in vivo; settings: oral, dose of 300 mg/kg
Procedure: Anticonvulsant Effect (Pentylenetetrazol-Induced Convulsion Method)
as §3
The test was conducted with reference to a method described in “Evaluation of Medicinal Efficacies (1), Pharmacological Test Method (1), Basic lectures on Development of Pharmaceuticals,” 167˜172(1971).

ddY mice [6] = assay: Acute toxicity test (LD50), first part; type: in vivo; settings: oral, male ddY mice, observed for 3 days

For `COc1ccc(C(=O)N2C(=O)CCC3C(O)CCC32)cc1` (centres unmarked) [Compound 13, γ-6,c-7-Hydroxy-2-(4-methoxybenzoyl)-2-azabicyclo-[4.3.0]nonan-3-one], the Frequency of water drinking behavior (Wistar rats; dose 0.001 mg/kg oral) was 130%, the Frequency of water drinking behavior (Wistar rats; dose 0.01 mg/kg oral) was 183% and the Frequency of water drinking behavior (Wistar rats; dose 0.1 mg/kg oral) was 177%. For the same compound, the Frequency of water drinking behavior (Wistar rats; dose 1.0 mg/kg oral) was 169%, the “Anxiolytic effect in the anticonflict test (in words)” value (Wistar rats; oral, compounds at doses of 0.001 to 1.0 mg/kg) was “increase in the frequency of water drinking behavior” and the “Muscle relaxant effect (in words)” value (ddY mice [1]) was “no muscle relaxant effect”. The “Sedative effect (in words)” value (ddY mice [2]) was “no sedative effect”, the “ED50, pentobarbital sleeping time in excess of twice control” value (ddY mice [3]) was 224.5 mg/kg and the “Ethanol enhancing effect (in words)” value (ddY mice [4]) was “no ethanol enhancing effect”. For the same compound, the “Anticonvulsant effect (in words)” value (ddY mice [5]) was “no anticonvtilsant effect” and the “Acute Toxicity LD50” value (ddY mice [6]) was 3000< mg/kg.
